From ChEMBL document CHEMBL1862790, “Optimisation of fenarimol series for the treatment of Chagas disease”

Key:
Trypanosoma cruzi [1] = test: microbe, parasite or virus in culture; format: functional, organism-based, Tulahuen LacZ, Clone C4
[2] = (§1) DNDI: Cytotoxicity against L-6 rat myoblasts from skeletal muscle cells
Trypanosoma cruzi [3] = test: microbe, parasite or virus in culture; format: functional, Tulahuen LacZ, Clone C4
L6 = test: as §1; settings: L6 rat skeletal muscle myoblast cells
[4] = Trypanosoma cruzi, Tulahuen LacZ, Clone C4
[5] = L6 rat skeletal muscle myoblast cells, IC50
[6] = L6 rat skeletal muscle myoblast cells

`FC(F)(F)Cn1cc(C(NC2CCN(c3ccc(OC(F)(F)F)cc3)CC2)c2cccnc2)cn1` (stereo unspecified) gave an IC50 (Trypanosoma cruzi [1]; [4]) of 65 nM, an IC50 [2, 5] of 66.6 µM and an IC90 (Trypanosoma cruzi [3]; [4]) of over 100 nM.

For `COc1cccc(C(O)(c2ccc(Cl)cc2)c2cccnc2)c1` (stereo unspecified), the IC50 (Trypanosoma cruzi [1]; [4]) was 61 nM, the IC50 (L6) was 85.6 µM and the IC90 (Trypanosoma cruzi [3]; [4]) was 315 nM.

In the case of `O=C(Nc1ccc(Cl)cc1)N1CCN(C(c2ccc(Cl)cc2)c2cncnc2)CC1` (stereo unspecified), the IC50 (Trypanosoma cruzi [1]; [4]) is reported as 22 nM, the IC50 (L6) is reported as 58.8 µM and the IC90 (Trypanosoma cruzi [3]; [4]) is reported as 65 nM.

Compound `OC(c1ccc(Cl)cc1)(c1cccnc1)c1ccc(F)cc1F` (stereo unspecified) has an IC50 (Trypanosoma cruzi [1]; [4]) of 16.4 nM, an IC50 (L6) of 70.2 µM and an IC90 (Trypanosoma cruzi [3]; [4]) of 29 nM.

In the case of `NC(c1ccc(Cl)cc1)(c1cccnc1)c1ccccc1Cl` (stereo unspecified), the IC50 (Trypanosoma cruzi [1]; [4]) is reported as 90 nM, the IC50 (L6) is reported as 76 µM and the IC90 (Trypanosoma cruzi [3]; [4]) is reported as 5050 nM.

`N#CC(c1ccc(Cl)cc1)(c1cccnc1)c1ccccc1Cl` (stereo unspecified) gave an IC50 (Trypanosoma cruzi [1]; [4]) of 50 nM, an IC50 (L6) of 56.8 µM and an IC90 (Trypanosoma cruzi [3]; [4]) of 220 nM.

Work on `FC(F)(F)Cn1cc(C(NC2CCN(c3ccc(C(F)(F)F)cc3)CC2)c2cccnc2)cn1` (stereo unspecified) yielded an IC50 (Trypanosoma cruzi [1]; [4]) of 46 nM, an IC50 [2, 5] of 71.2 µM and an IC90 (Trypanosoma cruzi [3]; [4]) of 88 nM.

Work on `CC(C)(C)c1cc(N2CCC(NC(c3ccc(Cl)cc3)c3cccnc3)CC2)[nH]n1` (stereo unspecified) yielded an IC50 (Trypanosoma cruzi [1]; [4]) of 19 nM, an IC50 [2, 5] of 50.2 µM and an IC90 (Trypanosoma cruzi [3]; [4]) of 47 nM.

With `CC(C)(C)OC(=O)N1CCN(C(c2cncnc2)c2ccc(Cl)cc2F)CC1` (stereo unspecified) the IC50 (Trypanosoma cruzi [1]; [4]) was 24 nM, the IC50 (L6) was 63.9 µM and the IC90 (Trypanosoma cruzi [3]; [4]) was 420 nM.

`Cc1ccc(C(O)(c2ccc(OC(C)C)cc2)c2cccnc2)c(F)c1` (stereo unspecified) showed an IC50 (Trypanosoma cruzi [1]; [4]) of 3.2 nM, an IC50 (L6) of 62.6 µM and an IC90 (Trypanosoma cruzi [3]; [4]) of 13 nM.

For `O=C(C1CCCCC1)N1CCN(C(c2cccnc2)c2ccc(Cl)cc2F)CC1` (stereo unspecified), the IC50 (Trypanosoma cruzi [1]; [4]) was 28 nM, the IC50 (L6) was 61.7 µM and the IC90 (Trypanosoma cruzi [3]; [4]) was 200 nM.

With `Fc1cc(Cl)ccc1C(c1cccnc1)N1CCN(c2ccccc2)CC1` (stereo unspecified) the IC50 (Trypanosoma cruzi [1]; [4]) was 18 nM, the IC50 (L6) was 57.6 µM and the IC90 (Trypanosoma cruzi [3]; [4]) was 40 nM.

`O=C(Oc1ccccc1)N1CCN(C(c2ccc(Cl)cc2)c2cccnc2)CC1` (stereo unspecified) gave an IC50 (Trypanosoma cruzi [1]; [4]) of 8 nM, an IC50 (L6) of 55.7 µM and an IC90 (Trypanosoma cruzi [3]; [4]) of 32 nM.

In the case of `OC(c1ccc(Cl)cc1)(c1cccnc1)c1ccccc1C(F)(F)F` (stereo unspecified), the IC50 (Trypanosoma cruzi [1]; [4]) is reported as 122 nM and the IC50 (L6) is reported as 59.2 µM.

`CCC(C(C)O)N1CCC(NC(c2ccc(Cl)cc2)c2cccnc2)CC1` (stereo unspecified) gave an IC50 (Trypanosoma cruzi [1]; [4]) of 230 nM, an IC50 [2, 5] of over 100 µM and an IC90 (Trypanosoma cruzi [3]; [4]) of 600 nM.

`O=S(=O)(C1CCCCC1)N1CCN(C(c2ccc(Cl)cc2)c2cccnc2)CC1` (stereo unspecified) gave an IC50 (Trypanosoma cruzi [1]; [4]) of 10 nM, an IC50 (L6) of 55.8 µM and an IC90 (Trypanosoma cruzi [3]; [4]) of 35 nM.

For `CC(C)Oc1ccc(C(O)(c2ccc(OC(C)C)cc2)c2cccnc2)cc1`, the IC50 (Trypanosoma cruzi [1]; [4]) was 16 nM, the IC50 (L6) was 61.4 µM and the IC90 (Trypanosoma cruzi [3]; [4]) was 25 nM.

`Clc1ccc(C(c2cccnc2)N2CCN(c3ccccc3)CC2)cc1` (stereo unspecified) showed an IC50 (Trypanosoma cruzi [1]; [4]) of 34 nM, an IC50 (L6) of 67.3 µM and an IC90 (Trypanosoma cruzi [3]; [4]) of 84 nM.

Compound `OC(c1ccc(C(F)(F)F)cc1)(c1cccnc1)c1cc2ccccc2s1` (stereo unspecified) has an IC50 (Trypanosoma cruzi [1]; [4]) of 20 nM, an IC50 (L6) of 58.7 µM and an IC90 (Trypanosoma cruzi [3]; [4]) of 110 nM.

`CC(C)Oc1ccc(C(O)(c2cccnc2)c2ccc(Cl)cc2F)cc1` (stereo unspecified) gave an IC50 (Trypanosoma cruzi [1]; [4]) of 1.3 nM, an IC50 (L6) of 56 µM and an IC90 (Trypanosoma cruzi [3]; [4]) of 3 nM.

With `CC(C)c1ccc(S(=O)(=O)N2CCN(C(c3ccc(Cl)cc3)c3cccnc3)CC2)cc1` (stereo unspecified) the IC50 (Trypanosoma cruzi [1]; [4]) was 12 nM, the IC50 (L6) was 80.2 µM and the IC90 (Trypanosoma cruzi [3]; [4]) was 57 nM.

For `FC(F)(F)c1ccc(C(NC2CCN(c3nccs3)CC2)c2cccnc2)cc1` (stereo unspecified), the IC50 (Trypanosoma cruzi [1]) was 9.5 nM, the IC50 (L6) was 54.9 µM and the IC90 (Trypanosoma cruzi [3]) was 29 nM.

`Clc1ccc(C(c2ccc(Cl)cc2)c2cncnc2)cc1` showed an IC50 (Trypanosoma cruzi [1]; [4]) of 682 nM, an IC50 (L6) of 70.1 µM and an IC90 (Trypanosoma cruzi [3]; [4]) of 6780 nM.

Compound `OC(c1ccc(Cl)cc1)(c1ccc(Cl)cc1)c1cncnc1` has an IC50 (Trypanosoma cruzi [1]; [4]) of 224 nM and an IC50 (L6) of 47.7 µM.

Work on `OC(c1ccc(Cl)cc1)(c1cccnc1)c1cccc(C(F)(F)F)c1` (stereo unspecified) yielded an IC50 (Trypanosoma cruzi [1]; [4]) of 67 nM, an IC50 (L6) of 60.4 µM and an IC90 (Trypanosoma cruzi [3]; [4]) of 162 nM.

For `CO/C=C(/C(=O)OC)c1ccccc1Oc1cc(Oc2ccccc2C#N)ncn1` [AZOXYSTROBIN], the IC50 (Trypanosoma cruzi [1]; [4]) was 3260 nM, the IC50 [2, 6] was 50.3 µM and the IC90 (Trypanosoma cruzi [3]; [4]) was 8680 nM.

For `CC1=C(C(=O)Nc2ccccc2)SCCO1` [CARBOXIN], the IC50 (Trypanosoma cruzi [1]; [4]) was 22400 nM, the IC50 [2, 6] was over 100 µM and the IC90 (Trypanosoma cruzi [3]; [4]) was 57500 nM.

Work on `COc1nc(C)nc(NC(=O)NS(=O)(=O)c2ccccc2Cl)n1` [CHLORSULFURON] yielded an IC50 (Trypanosoma cruzi [1]; [4]) of 45000 nM, an IC50 [2, 6] of over 100 µM and an IC90 (Trypanosoma cruzi [3]; [4]) of 100000 nM.

`Cc1ccc(-c2c(Cl)nc(C#N)n2S(=O)(=O)N(C)C)cc1` [Cyazofamid] gave an IC50 (Trypanosoma cruzi [1]; [4]) of 47200 nM, an IC50 [2, 6] of 74 µM and an IC90 (Trypanosoma cruzi [3]; [4]) of over 100000 nM.

`CCCCc1c(C)nc(NCC)[nH]c1=O` [ETHIRIMOL] gave an IC50 (Trypanosoma cruzi [1]; [4]) of over 100000 nM, an IC50 [2, 6] of over 100 µM and an IC90 (Trypanosoma cruzi [3]; [4]) of 100000 nM.

`Cc1occc1C(=O)Nc1ccccc1` [FENFURAM] gave an IC50 (Trypanosoma cruzi [1]; [4]) of 75000 nM, an IC50 [2, 6] of over 100 µM and an IC90 (Trypanosoma cruzi [3]; [4]) of over 100000 nM.

In the case of `CC(C)NC(=O)N1CC(=O)N(c2cc(Cl)cc(Cl)c2)C1=O` [IPRODIONE], the IC50 (Trypanosoma cruzi [1]; [4]) is reported as 49000 nM, the IC50 [2, 6] is reported as over 100 µM and the IC90 (Trypanosoma cruzi [3]; [4]) is reported as over 100000 nM.

With `CC1CS(=O)(=O)CCN1/N=C/c1ccc([N+](=O)[O-])o1` (stereo unspecified) [NIFURTIMOX] the IC50 (Trypanosoma cruzi [1]; [4]) was 230 nM, the IC50 ([2]; l6, IC50) was over 100 µM and the IC90 (Trypanosoma cruzi [3]; [4]) was 820 nM.

With `OC(c1ccc(F)cc1)(c1cncnc1)c1ccccc1Cl` (stereo unspecified) [NUARIMOL] the IC50 (Trypanosoma cruzi [1]; [4]) was 1140 nM, the IC50 [2, 6] was over 100 µM and the IC90 (Trypanosoma cruzi [3]; [4]) was 19500 nM.

Compound `CC1=C(C(=O)Nc2ccccc2)S(=O)(=O)CCO1` [OXYCARBOXIN] has an IC50 (Trypanosoma cruzi [1]; [4]) of 65100 nM, an IC50 [2, 6] of over 100 µM and an IC90 (Trypanosoma cruzi [3]; [4]) of over 100000 nM.

In the case of `COC(=O)N(OC)c1ccccc1COc1ccn(-c2ccc(Cl)cc2)n1` [PYRACLOSTROBIN], the IC50 (Trypanosoma cruzi [1]; [4]) is reported as 6460 nM, the IC50 [2, 6] is reported as 43.4 µM and the IC90 (Trypanosoma cruzi [3]; [4]) is reported as over 10000 nM.
